Data published in ChEMBL document CHEMBL3872201, “Synthesis and antiproliferative activity of a natural like glycoconjugate polycyclic compound” (2016).

Assay: Cytotoxicity against human MDA-MB-231 cells assessed as inhibition of cell viability at 5 uM after 48 hrs by MTT assay relative to control
Assay type: functional
Details: MDA-MB-231, 48 h

C=C1c2c(C)nn(-c3ccc(OC)cc3)c2N(C)C23CC1C1(C)c4c(C)nn(-c5ccc(OC)cc5)c4N(C)C(C)(CC12)C3 (stereo unspecified)
inhibition at 5 µM: 26%
